Reference: paper PMC2009897, “Comparison of mutagenesis and malignant transformation by dihydrodiols from benz[a]anthracene and 7,12-dimethylbenz[a]anthracene” (British Journal of Cancer, 1979)
Several values for one entry are separate records, joined by “and”; a condition that tells them apart may be missing. Equal values may be shown once. Read-outs that look alike come from different tables or passages of the source. Values belong to the compound of their own block, whether it stands above or below them.

Tests used:
M2 mouse fibroblasts [1] = experiment: Plating efficiency of M2 mouse fibroblasts; assay type: cell-based
[2] = test system: V79 Chinese hamster cells; experiment: Cytotoxicity (plating efficiency) in V79 Chinese hamster cells; assay type: cell-based
V79 cells = test system: V79 cells; set-up: method as in Slaga et al., 1978; conditions: presence of mono-oxygenase systems; ref Slaga et al., 1978; cited from earlier work
[3] = test system: Salmonella typhimurium TA100; conditions: cited from earlier work; for Mutagenic activity in Salmonella typhimurium TA100: presence of mono-oxygenase systems, ref Wood et al., 1976; for Microsome-mediated mutagenic activity in S. typhimurium TA100: ref Malaveille et al., 1978
newborn mice = test system: newborn mice; set-up: method as in Wislocki et al., 1976; conditions: ref Wislocki et al., 1976; cited from earlier work
mouse skin = conditions: cited from earlier work
C3H/HeJ mice = conditions: 106 cells from 2 clones transformed by the compound, 3 mice/clone (6 mice), five weeks after injection
M2 mouse fibroblasts [4] = test system: M2 mouse fibroblasts
M2 mouse fibroblasts [5] = conditions: cited from earlier work
[6] = test system: V79 Chinese hamster cells; conditions: ref Wood et al. (1977a); cited from earlier work
[7] = test system: V79 Chinese hamster cells

Compound: O[C@@H]1C=Cc2ccc3cc4ccccc4cc3c2[C@H]1O (relative stereo) [trans-1,2-Dihydro-1,2-dihydroxy BA, trans-1,2-Dihydro-1,2-dihydroxy-BA]
- Plating efficiency (%) in M2 cells (M2 mouse fibroblasts [1]; 1.2 µg/ml, 24 h, Table I): 44%
- Plating efficiency (%) in M2 cells (M2 mouse fibroblasts [1]; 2.5 µg/ml, 24 h, Table I): 40%
- Plating efficiency (%) in M2 cells (M2 mouse fibroblasts [1]; 5.0 µg/ml, 24 h, Table I): 37%
- Plating efficiency (%) in M2 cells (M2 mouse fibroblasts [1]; 10.0 µg/ml, 24 h, Table I): 10%
- Plating efficiency (%) in V79 cells ([2]; 1.2 µg/ml, 3 h, Table I): 99%
- Plating efficiency (%) in V79 cells ([2]; 2.5 µg/ml, 3 h, Table I): 95%
- Plating efficiency (%) in V79 cells ([2]; 5.0 µg/ml, 3 h, Table I): 89%
- Plating efficiency (%) in V79 cells ([2]; 10.0 µg/ml, 3 h, Table I): 55%
- Mutagenic activity in V79 cells (V79 cells): not found to be active
- Mutagenic activity in Salmonella typhimurium TA100 [3]: not found to be active

Compound: O[C@@H]1C=Cc2c(ccc3cc4ccccc4cc23)[C@H]1O (relative stereo) [trans-3,4-Dihydro-3,4-dihydroxy BA, trans-3,4-dihydro-3,4-dihydroxy-BA]
- Plating efficiency (%) in M2 cells (M2 mouse fibroblasts [1]; 2.5 µg/ml, 24 h, Table I): 50%
- Plating efficiency (%) in M2 cells (M2 mouse fibroblasts [1]; 5.0 µg/ml, 24 h, Table I): 38%
- Plating efficiency (%) in M2 cells (M2 mouse fibroblasts [1]; 10.0 µg/ml, 24 h, Table I): 12%
- Inducer of tumours in newborn mice (newborn mice): highly active
- Plating efficiency (%) in V79 cells ([2]; 2.5 µg/ml, 3 h, Table I): 93%
- Plating efficiency (%) in V79 cells ([2]; 5.0 µg/ml, 3 h, Table I): 84%
- Plating efficiency (%) in V79 cells ([2]; 10.0 µg/ml, 3 h, Table I): 56%
- Mutagenic activity in V79 cells (V79 cells): active
- Mutagenic activity in Salmonella typhimurium TA100 [3]: active
- Initiator of tumours on mouse skin (mouse skin; ref Wood et al., 1977b, Slaga et al., 1978): highly active

Compound: Cc1c2ccccc2c(C)c2c3c(ccc12)[C@@H](O)[C@H](O)C=C3 (relative stereo) [trans-3,4-Dihydro-3,4-dihydroxy-DMBA, trans-3,4-dihydro-3,4-dihydroxy-DMBA]
- Plating efficiency (%) in M2 cells (M2 mouse fibroblasts [1]; 0.12 µg/ml, 24 h, Table I): 31%
- Plating efficiency (%) in M2 cells (M2 mouse fibroblasts [1]; 0.25 µg/ml, 24 h, Table I): 26%
- Plating efficiency (%) in M2 cells (M2 mouse fibroblasts [1]; 0.5 µg/ml, 24 h, Table I): 25%
- Plating efficiency (%) in M2 cells (M2 mouse fibroblasts [1]; 1.0 µg/ml, 24 h, Table I): 15%
- Plating efficiency (%) in V79 cells ([2]; 0.12 µg/ml, 3 h, Table I): 67%
- Plating efficiency (%) in V79 cells ([2]; 0.25 µg/ml, 3 h, Table I): 58%
- Plating efficiency (%) in V79 cells ([2]; 0.5 µg/ml, 3 h, Table I): 50%
- Plating efficiency (%) in V79 cells ([2]; 1.0 µg/ml, 3 h, Table I): 43%
- Microsome-mediated mutagenic activity in S. typhimurium TA100 [3]: high
- Initiator of tumours on mouse skin (mouse skin; ref I. Chouroulinkov, personal communication): acts as an initiator of tumours on mouse skin
- Animals that developed malignant fibrosarcomas (C3H/HeJ mice): 6 animals
- Induction of malignant transformation in M2 mouse fibroblasts (result in words) (M2 mouse fibroblasts [4]): induced mutations in V79 cells and malignant transformation in M2 mouse fibroblasts
- Malignant transformation in M2 cells compared with the parent hydrocarbon (M2 mouse fibroblasts [4]): more active than the parent hydrocarbon

Compound: O[C@@H]1c2ccccc2-c2cc3ccccc3cc2[C@H]1O (relative stereo) [trans-5,6-Dihydro-5,6-dihydroxy BA, trans-5,6-Dihydro-5,6-dihydroxy-BA]
- Plating efficiency (%) in M2 cells (M2 mouse fibroblasts [1]; 2.5 µg/ml, 24 h, Table I): 44%
- Plating efficiency (%) in M2 cells (M2 mouse fibroblasts [1]; 5.0 µg/ml, 24 h, Table I): 42%
- Plating efficiency (%) in M2 cells (M2 mouse fibroblasts [1]; 10.0 µg/ml, 24 h, Table I): 40%
- Plating efficiency (%) in V79 cells ([2]; 2.5 µg/ml, 3 h, Table I): 85%
- Plating efficiency (%) in V79 cells ([2]; 5.0 µg/ml, 3 h, Table I): 74%
- Plating efficiency (%) in V79 cells ([2]; 10.0 µg/ml, 3 h, Table I): 59%

Compound: Cc1c2c(c(C)c3ccccc13)[C@@H](O)[C@H](O)c1ccccc1-2 (relative stereo) [trans-5,6-Dihydro-5,6-dihydroxy-DMBA, trans-5,6-dihydro-5,6-dihydroxy-DMBA]
- Plating efficiency (%) in M2 cells (M2 mouse fibroblasts [1]; 1.0 µg/ml, 24 h, Table I): 28%
- Plating efficiency (%) in M2 cells (M2 mouse fibroblasts [1]; 5.0 µg/ml, 24 h, Table I): 28%
- Plating efficiency (%) in M2 cells (M2 mouse fibroblasts [1]; 10.0 µg/ml, 24 h, Table I): 20%
- Plating efficiency (%) in V79 cells ([2]; 1.0 µg/ml, 3 h, Table I): 80%
- Plating efficiency (%) in V79 cells ([2]; 5.0 µg/ml, 3 h, Table I): 73%
- Plating efficiency (%) in V79 cells ([2]; 10.0 µg/ml, 3 h, Table I): 57%
- Induction of malignant transformation in M2 mouse fibroblasts (result in words) (M2 mouse fibroblasts [4]): inactive in both test systems
- Transformed foci/103 survivors (M2 mouse fibroblasts [4]): 0
- Transformed foci/dishes treated (M2 mouse fibroblasts [4]): 0/10

Compound: O[C@@H]1C=Cc2cc3c(ccc4ccccc43)cc2[C@H]1O (relative stereo) [trans-8,9-Dihydro-8,9-dihydroxy-BA, trans-8,9-dihydro-8,9-dihydroxy-BA]
- Plating efficiency (%) in M2 cells (M2 mouse fibroblasts [1]; 2.5 µg/ml, 24 h, Table I): 44%
- Plating efficiency (%) in M2 cells (M2 mouse fibroblasts [1]; 5.0 µg/ml, 24 h, Table I): 39%
- Plating efficiency (%) in M2 cells (M2 mouse fibroblasts [1]; 10.0 µg/ml, 24 h, Table I): 30%
- Plating efficiency (%) in V79 cells ([2]; 2.5 µg/ml, 3 h, Table I): 57%
- Plating efficiency (%) in V79 cells ([2]; 5.0 µg/ml, 3 h, Table I): 54%
- Plating efficiency (%) in V79 cells ([2]; 10.0 µg/ml, 3 h, Table I): 53%

Compound: Cc1c2c(c(C)c3c1ccc1ccccc13)C=C[C@@H](O)[C@@H]2O (relative stereo) [trans-8,9-Dihydro-8,9-dihydroxy-DMBA, trans-8,9-dihydro-8,9-dihydroxy-DMBA]
- Plating efficiency (%) in M2 cells (M2 mouse fibroblasts [1]; 0.25 µg/ml, 24 h, Table I): 26%
- Plating efficiency (%) in M2 cells (M2 mouse fibroblasts [1]; 0.5 µg/ml, 24 h, Table I): 22%
- Plating efficiency (%) in M2 cells (M2 mouse fibroblasts [1]; 1.0 µg/ml, 24 h, Table I): 7%
- Plating efficiency (%) in V79 cells ([2]; 0.25 µg/ml, 3 h, Table I): 62%
- Plating efficiency (%) in V79 cells ([2]; 0.5 µg/ml, 3 h, Table I): 45%
- Plating efficiency (%) in V79 cells ([2]; 1.0 µg/ml, 3 h, Table I): 32%
- Activity in M2 cells (malignant transformation), earlier observations (M2 mouse fibroblasts [5]): active
- Microsome-mediated mutagenic activity in S. typhimurium TA100 [3]: some mutagenic activity
- Induction of malignant transformation in M2 mouse fibroblasts (result in words) (M2 mouse fibroblasts [4]): induced mutations in V79 cells and malignant transformation in M2 mouse fibroblasts
- Malignant transformation in M2 cells compared with the parent hydrocarbon (M2 mouse fibroblasts [4]): more active than the parent hydrocarbon

Compound: O[C@@H]1C=Cc2cc3ccc4ccccc4c3cc2[C@H]1O (relative stereo) [trans-10,11-Dihydro-10,11-dihydroxy-BA, trans-10,11-dihydro-10,11-dihydroxy-BA]
- Plating efficiency (%) in M2 cells (M2 mouse fibroblasts [1]; 2.5 µg/ml, 24 h, Table I): 44%
- Plating efficiency (%) in M2 cells (M2 mouse fibroblasts [1]; 5.0 µg/ml, 24 h, Table I): 37%
- Plating efficiency (%) in M2 cells (M2 mouse fibroblasts [1]; 10.0 µg/ml, 24 h, Table I): 29%

Compound: Cc1c2c(c(C)c3c1ccc1ccccc13)[C@@H](O)[C@H](O)C=C2 (relative stereo) [trans-10,11-Dihydro-10,11-dihydroxy-DMBA, trans-10,11-dihydro-10,11-dihydroxy-DMBA]
- Plating efficiency (%) in M2 cells (M2 mouse fibroblasts [1]; 0.25 µg/ml, 24 h, Table I): 30%
- Plating efficiency (%) in M2 cells (M2 mouse fibroblasts [1]; 0.5 µg/ml, 24 h, Table I): 26%
- Plating efficiency (%) in M2 cells (M2 mouse fibroblasts [1]; 1.0 µg/ml, 24 h, Table I): 11%
- Plating efficiency (%) in V79 cells ([2]; 0.25 µg/ml, 3 h, Table I): 76%
- Plating efficiency (%) in V79 cells ([2]; 0.5 µg/ml, 3 h, Table I): 68%
- Plating efficiency (%) in V79 cells ([2]; 1.0 µg/ml, 3 h, Table I): 44%
- Induction of malignant transformation in M2 mouse fibroblasts (result in words) (M2 mouse fibroblasts [4]): inactive in both test systems
- Transformed foci/103 survivors (M2 mouse fibroblasts [4]): 0

Compound: OC1c2cc3ccc4ccccc4c3cc2C2OC2C1O (single isomer, unassigned) [anti-isomer, benz[a]anthracene 8,9-diol 10,11-oxide]
- Plating efficiency (%) in M2 cells (M2 mouse fibroblasts [1]; 1.2 µg/ml, 24 h, Table II): 26%
- Plating efficiency (%) in M2 cells (M2 mouse fibroblasts [1]; 2.5 µg/ml, 24 h, Table II): 12%
- Plating efficiency (%) in M2 cells (M2 mouse fibroblasts [1]; 5.0 µg/ml, 24 h, Table II): 6%
- Induction of mutations in V79 cells, anti versus syn isomer [6]: more active than the syn
- Plating efficiency (%) in V79 cells ([2]; 0.6 µg/ml, 3 h, Table II): 57%
- Plating efficiency (%) in V79 cells ([2]; 1.2 µg/ml, 3 h, Table II): 48%
- Plating efficiency (%) in V79 cells ([2]; 2.5 µg/ml, 3 h, Table II): 41%
- Plating efficiency (%) in V79 cells ([2]; 5.0 µg/ml, 3 h, Table II): 35%

- Induction of malignant transformation in M2 mouse fibroblasts (result in words) (M2 mouse fibroblasts [4]): inactive
Compound: OC1c2cc3ccc4ccccc4c3cc2C2OC2C1O (single isomer, unassigned) [syn-isomer, benz[a]anthracene 8,9-diol 10,11-oxide]
- Induction of mutations to 8-azaguanine resistance in V79 cells (result in words) [7]: mutagenic
- Plating efficiency (%) in M2 cells (M2 mouse fibroblasts [1]; 1.2 µg/ml, 24 h, Table II): 47%
- Plating efficiency (%) in M2 cells (M2 mouse fibroblasts [1]; 2.5 µg/ml, 24 h, Table II): 49%
- Plating efficiency (%) in M2 cells (M2 mouse fibroblasts [1]; 5.0 µg/ml, 24 h, Table II): 30%
- Plating efficiency (%) in V79 cells ([2]; 0.6 µg/ml, 3 h, Table II): 56%
- Plating efficiency (%) in V79 cells ([2]; 1.2 µg/ml, 3 h, Table II): 50%
- Plating efficiency (%) in V79 cells ([2]; 2.5 µg/ml, 3 h, Table II): 49%
- Plating efficiency (%) in V79 cells ([2]; 5.0 µg/ml, 3 h, Table II): 48%

Compound: c1ccc2cc3c(ccc4ccccc43)cc2c1 [BA, benz[a]anthracene]
- Induction of mutations to 8-azaguanine resistance in V79 cells (result in words) [7]: inactive
- Plating efficiency (%) in M2 cells (M2 mouse fibroblasts [1]): 32% and 29%
- Plating efficiency (%) in V79 cells [2]: 82% and 70%

Compound: Cc1c2ccccc2c(C)c2c1ccc1ccccc12 [DMBA, 7,12-dimethylbenz[a]anthracene]
- Induction of mutations to 8-azaguanine resistance in V79 cells (result in words) [7]: inactive
- Plating efficiency (%) in M2 cells (M2 mouse fibroblasts [1]): 26% and 24%
- Plating efficiency (%) in V79 cells [2]: 63% and 39%
- Induction of malignant transformation in M2 mouse fibroblasts (result in words) (M2 mouse fibroblasts [4]): some activity
